The values that follow are results of earlier work, collected in PMC4007625, “A phase I study of AST1306, a novel irreversible EGFR and HER2 kinase inhibitor, in patients with advanced solid tumors” (Journal of Hematology & Oncology, 2014).

This data set has as its system advanced/metastatic gastric cancer. Also noted: method as in PMID 21415234. Particulars: single agent, advanced/metastatic gastric cancer patients; cited from earlier work.

As for `CS(=O)(=O)CCNCc1ccc(-c2ccc3ncnc(Nc4ccc(OCc5cccc(F)c5)c(Cl)c4)c3c2)o1` [lapatinib], the response rate is given as 9%.
